Results: patent US20220110953A1, “METHODS AND COMPOSITIONS FOR TREATING HUMAN PAPILLOMAVIRUS (HPV)-INDUCED CANCERS” (The Board of Regents of the University of Oklahoma, priority 2020, published 2022)

How the values were obtained:
[1] = tested on: HPV 16+ and HPV 18+ human cervical cancer cell lines; test: Auranofin cell growth in human cervical cancer cell lines; type: cell-based; conditions: FIG. 6
[2] = Body weight and gross toxicity in the SiHa xenograft study; type: in vivo, mice; conditions: 10 mg/kg/day i.p., 16 days
Protocol: (§1) The animal study was conducted in accordance with a standard animal protocol approved by the University of Oklahoma Health Sciences Center Institutional Animal Care and Use Committee (IACUC Protocol #19-009-CHI). […] Auranofin (10 mg/kg/day) or placebo (2% DMSO, 10% ethanol and 5% polyethylene glycol 400) were given daily for 16 days, through intraperitoneal injection. Mice were weighed once per week and animal health was monitored daily. At the end of the study, all mice were euthanized by CO2 inhalation followed by cardiac puncture and total blood collection. Tumors were collected at necropsy and a portion of each tumor from each animal was fixed in paraformaldehyde and embedded in paraffin, while another portion was snap-frozen in liquid nitrogen.
(§2) The tumor volume and body weight data were determined to be not normally distributed, and the final tumor weight data was determined to be normally distributed using the Shapiro-Wilk test. Tumor volume and body weight were compared between treatment groups using the Wilcoxon matched-pairs signed rank test. A two-way ANOVA with multiple comparisons was used to evaluate the interaction between time and treatment. An unpaired t-test was used to compare the final tumor weights between the two treatment groups. The p values <0.05 were considered statistically significant. Statistical analysis was performed using Prism 8.0 (GraphPad).

[3] = tested on: SiHa cervical cancer xenografts (HPV 16+); test: SiHa tumor xenograft model; type: in vivo, mice; conditions: 10 mg/kg/day i.p., vs placebo
Protocol: as §1, §2

HaCat (HPV−) cells = test: Effect of IMD 0354 on growth of HaCat cells (cell count after 48h); type: cell-based, human; conditions: 250-1250 nM
Protocol: (§3) To examine the effect of IMD 0354 on the growth of HaCat (HPV^−), HeLa (HPV 18^+), CasKi and SiHa (both HPV 16^+), the cells were plated out and allowed to adhere overnight. Next day their culture medium was replaced and different concentrations of IMD 0354 (final concentrations 250, 500, 750, 1000, 1250 nM, using DMSO to equalize input volumes and as negative control) were added to the plates. Cells were counted 48h later.
(§4) IKKβ is a serine/threonine kinase that is highly conserved between flies and humans. It regulates the innate immune pathway by activating NF-κB, which in turn activates the expression of antimicrobial peptides to fight against pathogens. To determine whether IKKβ also has a functional link to E6+UBE3A in human cells, we assessed the effect of the commercial IKKβ inhibitor IMD 0354 on the growth of HaCat (HPV^−), HeLa (HPV 18^+), CasKi (HPV 16^+), and SiHa (HPV 16^+) cells. Different concentrations of the inhibitor were tested ranging from 250, 500, 750, 1000, to 1250 nM.

HPV 18 E6 = test: Western blot for phosphorylated E6 in HeLa cells treated with IKKβ inhibitor; type: cell-based, human
Protocol: HPV-18-positive HeLa cells were seeded on 6 cm dishes and allowed to attach overnight. Fresh medium was then added, containing either 0, 100 nM or 500 nM […] inhibitor (in DMSO). After 5 hours the cells were harvested in 2×SDS-PAGE gel loading buffer, run on SDS-PAGE, and analyzed by Western Blot. The membrane was probed with antibody specific for phosphorylated E6, as described previously (Boon and Banks 2012, DOI: 10.1128/JVI.02074-12). Following incubation with primary antibody, the appropriate horseradish peroxidase (HRP)-conjugated secondary antibodies (Dako) were used, followed by enhanced chemiluminescence (ECL) detection according to the manufacturer's instructions.
To assess whether phosphorylation-mediated regulation of E6 plays a role in suppression of Magi degradation, we treated cells expressing HPV 18 E6 with the IKKβ inhibitor […] (at 100 and 500 nM) and compared with untreated cells for E6 phosphorylation. Western blot analysis was performed using an antibody to detect phosphorylated E6.

SiHa (HPV 16+) cells = test: Effect of IMD 0354 on growth of SiHa cells (cell count after 48h); type: cell-based, human; conditions: 250-1250 nM
Protocol: as §3, §4

HeLa (HPV 18+) cells = test: Effect of IMD 0354 on growth of HeLa cells (cell count after 48h); type: cell-based, human
Protocol: as §3, §4

Structure (SMILES) | activity against cervical cancer cell lines (cell growth) [1] | gross toxicity to the animals [2] | body weights ([2]; vs placebo, any time point, p>0.05) | tumor growth (tumor volume over time) ([3]; 16 days, Wilcoxon p=0.0011) | tumor volume after 16 days of treatment ([3]; two-way ANOVA multiple comparisons p=0.0016) | effect on cell growth (HaCat (HPV−) cells) | E6 phosphorylation (Western blot) (HPV 18 E6; HeLa cell extracts, 100 nM, 5 hours) | E6 phosphorylation (Western blot) (HPV 18 E6; HeLa cell extracts, 500 nM, 5 hours) | E6 phosphorylation (Western blot) (HPV 18 E6; cells expressing HPV 18 E6, at 100 and 500 nM, compared with untreated cells) | effect on cell growth (SiHa (HPV 16+) cells) | number of surviving cells relative to the initial number of cells (HeLa (HPV 18+) cells; 250 nM) [%] | number of surviving cells relative to the initial number of cells (HeLa (HPV 18+) cells; 1250 nM) [%] | effect on cell growth (HeLa (HPV 18+) cells; 250-1250 nM)
CC(=O)OC[C@H]1O[C@@H]([S-])[C@H](OC(C)=O)[C@@H](OC(C)=O)[C@@H]1OC(C)=O.CCP(CC)CC.[Au+] [Auranofin] | active | did not cause gross toxicity | no significant differences | significant reduction in tumor growth | significant reduction in tumor volume |  |  |  |  |  |  |  | 
O=C(Nc1cc(C(F)(F)F)cc(C(F)(F)F)c1)c1cc(Cl)ccc1O [IMD 0354] |  |  |  |  |  | minor effect | lack of E6 phosphorylation | results in phosphorylation of E6 | extensive phosphorylation of E6 | significant | 40 | 10 | most strongly affected
